Three molecules from ChEMBL document CHEMBL1208782, “Synthesis and pharmacological validation of a novel series of non-steroidal FXR agonists” (Bioorg Med Chem Lett, 2010) can be followed below.

Test [1] concerns the target T1, Bile acid receptor (Homo sapiens) (UniProt Q96RI1).
T1 sequence (whole entry): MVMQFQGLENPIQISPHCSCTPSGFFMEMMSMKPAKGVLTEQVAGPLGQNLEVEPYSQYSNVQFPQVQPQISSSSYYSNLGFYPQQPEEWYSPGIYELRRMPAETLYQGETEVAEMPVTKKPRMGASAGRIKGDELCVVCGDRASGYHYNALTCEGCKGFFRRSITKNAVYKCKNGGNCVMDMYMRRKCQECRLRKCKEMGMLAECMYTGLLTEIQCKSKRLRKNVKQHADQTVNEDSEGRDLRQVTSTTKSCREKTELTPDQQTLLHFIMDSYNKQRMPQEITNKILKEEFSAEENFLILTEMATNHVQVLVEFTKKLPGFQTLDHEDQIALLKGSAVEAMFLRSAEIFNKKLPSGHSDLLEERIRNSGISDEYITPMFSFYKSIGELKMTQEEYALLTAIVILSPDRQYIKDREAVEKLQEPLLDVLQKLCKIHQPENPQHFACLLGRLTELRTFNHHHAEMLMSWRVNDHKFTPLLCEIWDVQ
Kind of test: Agonist activity at human GST-fused FXR LBD assessed as cofactor peptide interaction with receptor ligand binding domain by FRET assay relative to GW-4064.

The target in a further test is T2, Glucocorticoid receptor (Homo sapiens, UniProt P04150).
T2 sequence (P04150 whole entry): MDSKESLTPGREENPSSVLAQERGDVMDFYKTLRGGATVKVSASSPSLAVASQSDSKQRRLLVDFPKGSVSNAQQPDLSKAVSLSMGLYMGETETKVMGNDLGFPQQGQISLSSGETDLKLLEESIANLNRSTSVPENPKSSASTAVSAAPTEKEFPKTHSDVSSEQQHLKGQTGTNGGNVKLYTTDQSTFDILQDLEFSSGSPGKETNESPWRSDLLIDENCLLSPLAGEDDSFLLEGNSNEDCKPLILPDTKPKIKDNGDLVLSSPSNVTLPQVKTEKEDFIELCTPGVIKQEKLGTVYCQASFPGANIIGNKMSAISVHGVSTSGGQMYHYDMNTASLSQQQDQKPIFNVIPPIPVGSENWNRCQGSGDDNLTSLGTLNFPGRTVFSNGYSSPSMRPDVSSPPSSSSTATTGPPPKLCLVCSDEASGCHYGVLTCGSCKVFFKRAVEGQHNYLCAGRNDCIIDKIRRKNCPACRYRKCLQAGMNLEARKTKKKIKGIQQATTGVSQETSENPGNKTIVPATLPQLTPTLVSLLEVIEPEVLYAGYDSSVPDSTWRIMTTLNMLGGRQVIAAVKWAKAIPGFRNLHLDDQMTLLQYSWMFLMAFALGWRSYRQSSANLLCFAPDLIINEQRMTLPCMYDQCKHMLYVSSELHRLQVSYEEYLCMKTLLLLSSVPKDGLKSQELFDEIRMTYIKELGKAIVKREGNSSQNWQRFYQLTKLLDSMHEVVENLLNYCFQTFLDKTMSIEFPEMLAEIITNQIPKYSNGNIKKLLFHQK
Kind of test: Agonist activity at GR-LBD expressed in HEK293 cells assessed as Gal4-DBD interaction by cellular mammalian one hybrid assay. Type of test: functional, cell-based.

The target of test [2] is T3, Peroxisome proliferator-activated receptor delta (Homo sapiens, UniProt Q03181).
T3 sequence (Q03181 whole entry): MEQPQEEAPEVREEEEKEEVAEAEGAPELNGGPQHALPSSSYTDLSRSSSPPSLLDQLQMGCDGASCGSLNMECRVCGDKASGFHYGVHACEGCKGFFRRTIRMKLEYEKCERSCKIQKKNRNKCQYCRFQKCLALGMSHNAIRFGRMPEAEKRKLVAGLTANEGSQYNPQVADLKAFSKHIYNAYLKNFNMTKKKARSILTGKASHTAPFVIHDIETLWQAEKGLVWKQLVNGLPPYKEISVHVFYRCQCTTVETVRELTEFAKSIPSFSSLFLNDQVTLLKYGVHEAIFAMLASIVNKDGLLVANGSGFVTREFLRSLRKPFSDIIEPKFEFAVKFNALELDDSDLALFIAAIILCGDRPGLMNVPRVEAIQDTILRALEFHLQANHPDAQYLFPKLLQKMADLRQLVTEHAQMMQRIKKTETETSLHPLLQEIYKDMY
Kind of test: Agonist activity at PPAR-beta/delta-LBD expressed in HEK293 cells assessed as Gal4-DBD interaction by cellular mammalian one hybrid assay. Format: functional, cell-based.

In test [3] the target is T4, Oxysterols receptor LXR-alpha (Homo sapiens, UniProt Q13133).
T4 sequence (Q13133 whole entry): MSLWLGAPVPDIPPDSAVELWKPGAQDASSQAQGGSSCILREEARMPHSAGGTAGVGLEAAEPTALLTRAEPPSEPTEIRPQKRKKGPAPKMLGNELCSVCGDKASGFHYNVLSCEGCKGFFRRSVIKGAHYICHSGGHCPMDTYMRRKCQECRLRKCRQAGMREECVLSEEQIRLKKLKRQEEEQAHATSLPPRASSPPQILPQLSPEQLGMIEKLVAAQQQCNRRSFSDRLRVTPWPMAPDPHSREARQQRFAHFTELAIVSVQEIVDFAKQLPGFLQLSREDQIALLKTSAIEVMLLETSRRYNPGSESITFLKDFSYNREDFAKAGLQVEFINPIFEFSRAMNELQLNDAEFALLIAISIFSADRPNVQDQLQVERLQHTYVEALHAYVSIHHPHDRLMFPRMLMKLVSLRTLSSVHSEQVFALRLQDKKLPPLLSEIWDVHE
The experiment in a line: Agonist activity at LXRalpha-LBD expressed in HEK293 cells assessed as Gal4-DBD interaction by cellular mammalian one hybrid assay. Type of test: functional, cell-based.

Bounds are passed on as bounds.

The term EC50 denotes the midpoint of the concentration-response curve.

As to `CN(Cc1ccc(C(=O)O)cc1)c1ccc(OCc2c(-c3c(Cl)cccc3Cl)noc2C2CC2)nc1C(F)(F)F`, in test [1], the Efficacy turned out to be 109%. Moreover, the EC50 (at Glucocorticoid receptor; in test [2]; in test [3]) was over 10 µM in each case.

In the case of `CN(Cc1cccc(C(=O)O)c1)c1ccc(OCc2c(-c3c(Cl)cccc3Cl)noc2C2CC2)nc1C(F)(F)F`, the Efficacy in test [1] is 102%. Besides, the concentration giving a half-maximal response (EC50) (at Glucocorticoid receptor; in test [2]; in test [3]) was over 10 µM each time.

For the molecule `CC(C)c1onc(-c2c(Cl)cccc2Cl)c1COc1ccc(N(C)Cc2ccc(C(=O)O)cc2)c(C(F)(F)F)n1`, the Efficacy in test [1] was 97%. For the same molecule, the EC50 (at Glucocorticoid receptor; in test [2]; in test [3]) was over 10 µM in each case.
